Measurements as given in patent publication US9085555B2, “Complement pathway modulators and uses thereof” (priority 2011, dated 2015).

The compounds below were run against Factor D (Homo sapiens (Human), UniProt P00746) (assay: biochemical). Settings: read-out: IC50.
Chain of Factor D (P00746 26-253): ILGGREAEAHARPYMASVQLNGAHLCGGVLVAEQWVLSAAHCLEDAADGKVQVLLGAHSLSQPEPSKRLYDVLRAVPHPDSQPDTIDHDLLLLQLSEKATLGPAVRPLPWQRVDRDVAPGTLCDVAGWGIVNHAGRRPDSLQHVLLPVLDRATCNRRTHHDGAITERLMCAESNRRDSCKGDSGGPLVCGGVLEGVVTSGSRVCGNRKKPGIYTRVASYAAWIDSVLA
Type: biochemical
`Cc1c(Cl)cccc1CNC(=O)[C@@H]1C[C@H](N)CN1C(=O)Nc1cn(C(N)=O)c2ccccc12` [Example 57, (2S,4S)-4-Amino-pyrrolidine-1,2-dicarboxylic acid 1-[(1-carbamoyl-1H-indol-3-yl)-amide] 2-(3-chloro-2-methyl-benzylamide)] was tested, and the IC50 was 1.35 µM.
`Cc1ccc(Cl)cc1CNC(=O)[C@@H]1C[C@H](N)CN1C(=O)Nc1cn(C(N)=O)c2ccccc12` [Example 58, (2S,4S)-4-Amino-pyrrolidine-1,2-dicarboxylic acid 1-[(1-carbamoyl-1H-indol-3-yl)-amide] 2-(5-chloro-2-methyl-benzylamide)] gave an IC50 of 0.35 µM.
`Cc1ccc(CNC(=O)[C@@H]2C[C@H](N)CN2C(=O)Nc2cn(C(N)=O)c3ccccc23)cc1Cl` [Example 59, (2S,4S)-4-Amino-pyrrolidine-1,2-dicarboxylic acid 1-[(1-carbamoyl-1H-indol-3-yl)-amide] 2-(3-chloro-4-methyl-benzylamide)] was tested, and the IC50 was 6.4 µM.
For `NC(=O)n1cc(NC(=O)N2C[C@@H](N)C[C@H]2C(=O)NCc2cc(Cl)cc(Cl)c2)c2ccccc21` [Example 60, (2S,4S)-4-Amino-pyrrolidine-1,2-dicarboxylic acid 1-[(1-carbamoyl-1H-indol-3-yl)-amide] 2-(3,5-dichloro-benzylamide)], the IC50 was 0.8 µM.
Work on `NC(=O)n1cc(NC(=O)N2C[C@@H](N)C[C@H]2C(=O)NCc2ccc(Cl)c(Cl)c2)c2ccccc21` [Example 61, (2S,4S)-4-Amino-pyrrolidine-1,2-dicarboxylic acid 1-[(1-carbamoyl-1H-indol-3-yl)-amide] 2-(3,4-dichloro-benzylamide)] yielded an IC50 of 7.1 µM.
`NC(=O)n1cc(NC(=O)N2C[C@@H](N)C[C@H]2C(=O)NCc2c(F)ccc(Cl)c2F)c2ccccc21` [Example 62, (2S,4S)-4-Amino-pyrrolidine-1,2-dicarboxylic acid 1-[(1-carbamoyl-1H-indol-3-yl)-amide] 2-(3-chloro-2,6-difluoro-benzylamide)] showed an IC50 of 0.085 µM.
In the case of `NC(=O)n1cc(NC(=O)N2C[C@@H](N)C[C@H]2C(=O)NCc2ccc3ccccc3c2)c2ccccc21` [Example 63, (2S,4S)-4-Amino-pyrrolidine-1,2-dicarboxylic acid 1-[(1-carbamoyl-1H-indol-3-yl)-amide] 2-[(naphthalen-2-ylmethyl)-amide]], the IC50 is reported as 11.4 µM.
For `NC(=O)n1cc(NC(=O)N2C[C@@H](N)C[C@H]2C(=O)NCc2cccc3ccccc23)c2ccccc21` [Example 64, (2S,4S)-4-Amino-pyrrolidine-1,2-dicarboxylic acid 1-[(1-carbamoyl-1H-indol-3-yl)-amide] 2-[(naphthalen-1-ylmethyl)-amide]], the IC50 was 22.4 µM.
For `Cc1cnc(CNC(=O)[C@@H]2C[C@H](N)CN2C(=O)Nc2cn(C(N)=O)c3ccccc23)s1` [Example 65, (2S,4S)-4-Amino-pyrrolidine-1,2-dicarboxylic acid 1-[(1-carbamoyl-1H-indol-3-yl)-amide] 2-[(5-methyl-thiazol-2-ylmethyl)-amide]], the IC50 was 13.1 µM.
For `NC(=O)n1cc(NC(=O)N2C[C@@H](N)C[C@H]2C(=O)NCc2ccc(Cl)s2)c2ccccc21` [Example 66, (2S,4S)-4-Amino-pyrrolidine-1,2-dicarboxylic acid 1-[(1-carbamoyl-1H-indol-3-yl)-amide] 2-[(5-chloro-thiophen-2-ylmethyl)-amide]], the IC50 was 0.065 µM.
Compound `Cc1ccnc(CNC(=O)[C@@H]2C[C@H](N)CN2C(=O)Nc2cn(C(N)=O)c3ccccc23)c1` [Example 67, (2S,4S)-4-Amino-pyrrolidine-1,2-dicarboxylic acid 1-[(1-carbamoyl-1H-indol-3-yl)-amide] 2-[(4-methyl-pyridin-2-ylmethyl)-amide]] has an IC50 of 22.2 µM.
Work on `C[C@H](NC(=O)[C@@H]1C[C@H](N)CN1C(=O)Nc1cn(C(N)=O)c2ccccc12)c1cccc(Cl)c1` [Example 68, (2S,4S)-4-Amino-pyrrolidine-1,2-dicarboxylic acid 1-[(1-carbamoyl-1H-indol-3-yl)-amide] 2-{[(S)-1-(3-chloro-phenyl)-ethyl]-amide}] yielded an IC50 of 15.1 µM.
Compound `C[C@@H](NC(=O)[C@@H]1C[C@H](N)CN1C(=O)Nc1cn(C(N)=O)c2ccccc12)c1cccc(Cl)c1` [Example 69, (2S,4S)-4-Amino-pyrrolidine-1,2-dicarboxylic acid 1-[(1-carbamoyl-1H-indol-3-yl)-amide] 2-{[(R)-1-(3-chloro-phenyl)-ethyl]-amide}] has an IC50 of 1.05 µM.
`NC(=O)n1cc(NC(=O)N2C[C@@H](N)C[C@H]2C(=O)NC(CO)c2cc(Cl)cc(Cl)c2)c2ccccc21` (stereo partly drawn) [Example 70, (2S,4S)-4-Amino-pyrrolidine-1,2-dicarboxylic acid 1-[(1-carbamoyl-1H-indol-3-yl)-amide] 2-{[1-(3,5-dichloro-phenyl)-2-hydroxy-ethyl]-amide}] was tested, and the IC50 was 2.58 µM.
With `NC(=O)n1cc(NC(=O)N2C[C@@H](N)C[C@H]2C(=O)NC(CCO)c2cccc(Cl)c2)c2ccccc21` (stereo partly drawn) [Example 71, (2S,4S)-4-Amino-pyrrolidine-1,2-dicarboxylic acid 1-[(1-carbamoyl-1H-indol-3-yl)-amide] 2-{[1-(3-chloro-phenyl)-3-hydroxy-propyl]-amide}] the IC50 was 2.9 µM.
`NC(=O)n1cc(NC(=O)N2C[C@@H](N)C[C@H]2C(=O)NC2(c3ccccc3)CC2)c2ccccc21` [Example 72, (2S,4S)-4-Amino-pyrrolidine-1,2-dicarboxylic acid 1-[(1-carbamoyl-1H-indol-3-yl)-amide] 2-[(1-phenyl-cyclopropyl)-amide]] gave an IC50 of 7 µM.
In the case of `NC(=O)n1cc(NC(=O)N2C[C@@H](N)C[C@H]2C(=O)NC(c2ccccc2)c2ccccc2)c2ccccc21` [Example 73, (2S,4S)-4-Amino-pyrrolidine-1,2-dicarboxylic acid 2-benzhydryl-amide 1-[(1-carbamoyl-1H-indol-3-yl)-amide]], the IC50 is reported as 0.325 µM.
`NC(=O)n1cc(NC(=O)N2C[C@@H](N)C[C@H]2C(=O)NCC2CCCCC2)c2ccccc21` [Example 74, (2S,4S)-4-Amino-pyrrolidine-1,2-dicarboxylic acid 1-[(1-carbamoyl-1H-indol-3-yl)-amide] 2-cyclohexylmethyl-amide] showed an IC50 of 3.65 µM.
For `NC(=O)n1cc(NC(=O)N2C[C@@H](N)C[C@H]2C(=O)NC[C@@H]2CCCC[C@@H]2O)c2ccccc21` [Example 76, (2S,4S)-4-Amino-pyrrolidine-1,2-dicarboxylic acid 1-[(1-carbamoyl-1H-indol-3-yl)-amide] 2-[((1S,2S)-2-hydroxy-cyclohexylmethyl)-amide]], the IC50 was 15.7 µM.
In the case of `NC(=O)n1cc(NC(=O)N2C[C@@H](N)C[C@H]2C(=O)NC2CCCCC2)c2ccccc21` [Example 77, (2S,4S)-4-Amino-pyrrolidine-1,2-dicarboxylic acid 1-[(1-carbamoyl-1H-indol-3-yl)-amide] 2-cyclohexylamide], the IC50 is reported as 14.6 µM.
Compound `NC(=O)n1cc(NC(=O)N2C[C@@H](N)C[C@H]2C(=O)NC2CCCN(c3ccccn3)C2)c2ccccc21` (stereo partly drawn) [Example 78, (2S,4S)-4-Amino-pyrrolidine-1,2-dicarboxylic acid 1-[(1-carbamoyl-1H-indol-3-yl)-amide] 2-[(3,4,5,6-tetrahydro-2H-[1,2′]bipyridinyl-3-yl)-amide]] has an IC50 of 10.4 µM.
With `NC(=O)n1cc(NC(=O)N2C[C@@H](N)C[C@H]2C(=O)NC2CCc3ccc(Cl)cc32)c2ccccc21` (stereo partly drawn) [Example 79, (2S,4S)-4-Amino-pyrrolidine-1,2-dicarboxylic acid 1-[(1-carbamoyl-1H-indol-3-yl)-amide] 2-[(6-chloro-indan-1-yl)-amide]] the IC50 was 6 µM.
`NC(=O)n1cc(NC(=O)N2C[C@@H](N)C[C@H]2C(=O)NC2CCOc3ccc(Cl)cc32)c2ccccc21` (stereo partly drawn) [Example 80, (2S,4S)-4-Amino-pyrrolidine-1,2-dicarboxylic acid 1-[(1-carbamoyl-1H-indol-3-yl)-amide] 2-[(6-chloro-chroman-4-yl)-amide]] showed an IC50 of 15 µM.
For `NC(=O)n1cc(NC(=O)N2C[C@@H](N)C[C@H]2C(=O)NCCc2ccccc2)c2ccccc21` [Example 81, (2S,4S)-4-Amino-pyrrolidine-1,2-dicarboxylic acid 1-[(1-carbamoyl-1H-indol-3-yl)-amide] 2-(phenethyl-amide)], the IC50 was 4.75 µM.
`NC(=O)n1cc(NC(=O)N2C[C@@H](N)C[C@H]2C(=O)NCC(O)c2ccccc2)c2ccccc21` (stereo partly drawn) [Example 82, (2S,4S)-4-Amino-pyrrolidine-1,2-dicarboxylic acid 1-[(1-carbamoyl-1H-indol-3-yl)-amide] 2-[(2-hydroxy-2-phenyl-ethyl)-amide]] gave an IC50 of 24.8 µM.
`NC(=O)n1cc(NC(=O)N2C[C@@H](N)C[C@H]2C(=O)N[C@@H]2C[C@H]2c2ccccc2)c2ccccc21` [Example 83] gave an IC50 of 2.25 µM.
`C[C@@H](CNC(=O)[C@@H]1C[C@H](N)CN1C(=O)Nc1cn(C(N)=O)c2ccccc12)c1ccccc1` [Example 84, (2S,4S)-4-Amino-pyrrolidine-1,2-dicarboxylic acid 1-[(1-carbamoyl-1H-indol-3-yl)-amide] 2-[((R)-2-phenyl-propyl)-amide]] showed an IC50 of 6 µM.
Work on `C[C@H](CNC(=O)[C@@H]1C[C@H](N)CN1C(=O)Nc1cn(C(N)=O)c2ccccc12)c1ccccc1` [Example 85, (2S,4S)-4-Amino-pyrrolidine-1,2-dicarboxylic acid 1-[(1-carbamoyl-1H-indol-3-yl)-amide] 2-[((S)-2-phenyl-propyl)-amide]] yielded an IC50 of 11.3 µM.
For `NC(=O)n1cc(NC(=O)N2C[C@@H](N)C[C@H]2C(=O)NCCc2cccc(Cl)c2)c2ccccc21` [Example 86, (2S,4S)-4-Amino-pyrrolidine-1,2-dicarboxylic acid 1-[(1-carbamoyl-1H-indol-3-yl)-amide] 2-{[2-(3-chloro-phenyl)-ethyl]-amide}], the IC50 was 14.3 µM.
Compound `NC(=O)n1cc(NC(=O)N2C[C@@H](N)C[C@H]2C(=O)NCCc2ccccc2Cl)c2ccccc21` [Example 87, (2S,4S)-4-Amino-pyrrolidine-1,2-dicarboxylic acid 1-[(1-carbamoyl-1Hindol-3-yl)-amide] 2-{[2-(2-chloro-phenyl)-ethyl]-amide}] has an IC50 of 4.65 µM.
`NC(=O)n1cc(NC(=O)N2C[C@@H](N)C[C@H]2C(=O)NCCc2ccccc2F)c2ccccc21` [Example 88, (2S,4S)-4-Amino-pyrrolidine-1,2-dicarboxylic acid 1-[(1-carbamoyl-1Hindol-3-yl)-amide] 2-{[2-(2-fluoro-phenyl)-ethyl]-amide}] gave an IC50 of 6.8 µM.
